20 compounds from ChEMBL document CHEMBL1201862, “PubChem BioAssay data set” (2004) can be followed below.

Test [1] has as its system Streptococcus sp. 'group A'. Briefly: growth inhibition of control SK(-) GAS strain, dose response, counter-screen for streptokinase expression inhibitor project, luminescence, kanamycin, BacTiterGlo, confirmation (AID 1900). Format: functional, organism-based. (In general: Counterscreens check selectivity or assay interference.)
The target of the next test is T1, Streptokinase A (Streptococcus pyogenes serotype M1, UniProt P10520).
T1 sequence (P10520 whole entry): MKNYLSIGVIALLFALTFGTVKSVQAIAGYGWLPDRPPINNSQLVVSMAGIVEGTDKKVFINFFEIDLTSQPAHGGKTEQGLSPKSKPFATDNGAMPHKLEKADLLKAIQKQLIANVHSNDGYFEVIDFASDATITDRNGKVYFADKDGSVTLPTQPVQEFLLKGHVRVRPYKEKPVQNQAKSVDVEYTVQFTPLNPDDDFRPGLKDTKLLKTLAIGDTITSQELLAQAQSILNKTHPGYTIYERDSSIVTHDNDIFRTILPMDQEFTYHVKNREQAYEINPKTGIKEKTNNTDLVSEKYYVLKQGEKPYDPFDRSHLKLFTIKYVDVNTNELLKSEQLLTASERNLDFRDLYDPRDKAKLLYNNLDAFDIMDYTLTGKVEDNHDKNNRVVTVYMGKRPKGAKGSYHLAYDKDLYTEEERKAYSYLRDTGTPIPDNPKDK
Briefly: S. pyogenes streptokinase expression inhibitors, potency, dose response, plasminogen activation absorbance, OD405 (AID 1914).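 Note: secreted streptokinase activity via plasminogen activation per viability signal from cell pellet.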 The class given is functional, Streptococcus pyogenes M1 GAS.

The subject of the next test is Streptococcus. Briefly: Group A Streptococcus viability loss, dose response, counter-screen for streptokinase expression inhibitor project, luminescence, BacTiterGlo (AID 1915).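 Note: potency for reduction of bacterial viability or growth.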 The class given is functional, organism-based.
The target of test [2] is Heat shock protein HSP 90-alpha (Homo sapiens, UniProt P07900). The class given is functional, organism-based.
Test [3] deals with T2, DNA repair protein RAD52 homolog (Homo sapiens, UniProt P43351).
T2 sequence (P43351 whole entry): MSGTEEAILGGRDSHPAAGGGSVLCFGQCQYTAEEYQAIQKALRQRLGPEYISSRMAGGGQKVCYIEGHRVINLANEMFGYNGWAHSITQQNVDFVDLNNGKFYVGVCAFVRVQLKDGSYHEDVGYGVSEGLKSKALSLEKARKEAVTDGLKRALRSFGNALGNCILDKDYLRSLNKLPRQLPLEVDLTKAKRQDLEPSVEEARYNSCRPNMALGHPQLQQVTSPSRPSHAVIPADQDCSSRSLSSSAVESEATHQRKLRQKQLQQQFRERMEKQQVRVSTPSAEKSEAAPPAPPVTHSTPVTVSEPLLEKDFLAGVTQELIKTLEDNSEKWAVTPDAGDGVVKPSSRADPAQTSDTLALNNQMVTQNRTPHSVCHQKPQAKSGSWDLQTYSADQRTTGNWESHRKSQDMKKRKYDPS
The class given is functional, biochemical.

The target of test [4] is FAD-linked sulfhydryl oxidase ALR (Homo sapiens, UniProt P55789). Briefly: inhibitors of human ALR sulfhydryl oxidase, dose response, biochemical, H2O2 detection, luminescence, cherry-pick (AID 493248).
FAD-linked sulfhydryl oxidase ALR, sequence (P55789 whole entry): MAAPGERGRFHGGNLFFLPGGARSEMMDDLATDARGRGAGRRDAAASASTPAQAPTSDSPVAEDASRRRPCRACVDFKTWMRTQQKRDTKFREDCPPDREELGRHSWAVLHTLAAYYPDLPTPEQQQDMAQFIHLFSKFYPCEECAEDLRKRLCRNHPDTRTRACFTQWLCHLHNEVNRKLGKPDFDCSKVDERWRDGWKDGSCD
The nature of test [5]: inhibitors of intracellular T. cruzi replication, confirmation, NIH3T3 host cells, beta-gal luminescence (AID 2044).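 Note: intracellular parasites grown in NIH/3T3 mouse fibroblasts as host cells; luminescent beta-galactosidase reporter signal from transgenic T. cruzi replicating inside host cells; inhibitors lower the luminescence signal.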 Format: functional, cell-based.
Test [6] in a line: cytotoxicity toward NIH3T3 fibroblasts, dose response, counter-screen, cell-based, ATP luminescence, mouse fibroblasts (AID 2010).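 Note: cells exposed to compound for about 90 hours before reading.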 The class given is functional.
The subject of a further test is P388/ADR. Briefly: cells. Format: functional. The following applies: Mus musculus.
A further test concerns P388. Briefly: cells. Format: functional. The following applies: Mus musculus.
The target of another test is Nonstructural protein 1 (Influenza A virus, UniProt Q194T2). The class given is functional, Influenza A virus (A/California/07/2009(H1N1)).
Nonstructural protein 1, sequence (Q194T2 whole entry): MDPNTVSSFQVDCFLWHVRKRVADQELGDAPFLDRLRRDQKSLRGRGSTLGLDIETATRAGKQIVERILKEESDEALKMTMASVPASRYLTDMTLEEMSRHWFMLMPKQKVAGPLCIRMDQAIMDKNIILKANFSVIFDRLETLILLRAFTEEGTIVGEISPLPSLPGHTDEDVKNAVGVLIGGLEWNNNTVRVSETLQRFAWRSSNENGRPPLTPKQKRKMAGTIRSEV
Another test deals with INS1. Briefly: beta cell apoptosis inhibitors, cytokine rescue, dose response, luminescence, retest (AID 449756).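 Note: cell death triggered by IL-1 beta plus TNF-alpha plus IFN-gamma mixture; protective hits raise ATP signal compared with cytokine alone wells.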 Format: functional, cell-based. The following applies: Rattus norvegicus, INS1.
Test [7] addresses T3, RNA-binding protein pos-1 (Caenorhabditis elegans, UniProt G5EF15).
T3 sequence (G5EF15 whole entry): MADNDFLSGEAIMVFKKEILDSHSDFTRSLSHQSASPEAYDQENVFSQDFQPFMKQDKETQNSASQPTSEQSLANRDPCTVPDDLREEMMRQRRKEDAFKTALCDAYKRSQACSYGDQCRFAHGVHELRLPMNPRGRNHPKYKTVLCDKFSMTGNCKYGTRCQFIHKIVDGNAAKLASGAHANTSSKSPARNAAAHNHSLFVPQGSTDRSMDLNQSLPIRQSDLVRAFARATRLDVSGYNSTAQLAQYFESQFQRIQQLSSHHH
Briefly: inhibitors of POS-1/mex-3 RNA binding, dose response, biochemical, fluorescence polarization (AID 1964). (In general: Fluorescence polarisation rises when a labelled molecule tumbles more slowly, as on binding a larger partner.)

In test [8] the target is T4, Zinc finger protein mex-5 (Caenorhabditis elegans, UniProt Q9XUB2).
T4 sequence (Q9XUB2 whole entry): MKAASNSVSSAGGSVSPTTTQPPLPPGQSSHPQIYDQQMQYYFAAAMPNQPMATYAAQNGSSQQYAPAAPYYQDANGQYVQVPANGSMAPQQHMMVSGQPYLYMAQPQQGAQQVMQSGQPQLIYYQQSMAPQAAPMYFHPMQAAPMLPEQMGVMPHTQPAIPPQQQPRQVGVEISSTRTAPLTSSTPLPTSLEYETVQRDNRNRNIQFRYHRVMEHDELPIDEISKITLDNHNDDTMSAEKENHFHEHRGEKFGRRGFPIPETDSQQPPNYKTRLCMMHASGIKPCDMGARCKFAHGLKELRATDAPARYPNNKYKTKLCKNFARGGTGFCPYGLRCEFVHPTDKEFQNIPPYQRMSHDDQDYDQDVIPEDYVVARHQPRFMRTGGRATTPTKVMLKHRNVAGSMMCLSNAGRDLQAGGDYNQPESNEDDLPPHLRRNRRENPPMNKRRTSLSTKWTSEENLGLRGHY
Briefly: MEX-5/TCR-2 RNA interaction inhibitors, dose response, biochemical, C. elegans, fluorescence polarization (AID 1960).

The target in test [9] is T5, Microphthalmia-associated transcription factor (Homo sapiens, UniProt O75030).
T5 sequence (O75030 whole entry): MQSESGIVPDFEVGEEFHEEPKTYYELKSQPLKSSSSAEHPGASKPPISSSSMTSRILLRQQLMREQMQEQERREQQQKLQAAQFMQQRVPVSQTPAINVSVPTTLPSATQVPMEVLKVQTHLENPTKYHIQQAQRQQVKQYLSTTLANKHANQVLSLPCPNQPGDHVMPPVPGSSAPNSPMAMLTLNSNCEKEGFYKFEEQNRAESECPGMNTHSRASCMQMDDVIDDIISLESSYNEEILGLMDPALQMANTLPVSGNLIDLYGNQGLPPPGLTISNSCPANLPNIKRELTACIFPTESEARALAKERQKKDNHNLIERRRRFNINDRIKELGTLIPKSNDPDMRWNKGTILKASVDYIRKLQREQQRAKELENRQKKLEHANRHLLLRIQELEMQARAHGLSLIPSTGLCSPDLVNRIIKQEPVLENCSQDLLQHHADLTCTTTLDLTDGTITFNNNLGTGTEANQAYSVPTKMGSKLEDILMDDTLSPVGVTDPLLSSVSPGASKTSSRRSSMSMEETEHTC
Briefly: TRPM1 promoter luciferase signal decrease, dose response, MITF inhibitor project, cell-based, SK-MEL-5, cherry-picked, set 3 (AID 493073).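 Note: SK-MEL-5 melanoma cells with luciferase driven by the MITF target TRPM1 promoter.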 The class given is functional.

Another test concerns the target Large T antigen (Simian virus 40, UniProt P03070). The class given is functional, Betapolyomavirus macacae.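 Note: Confirmatory-stage PubChem screen for compounds that inhibit SV40 T antigen.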
The target of test [10] is T6, Rac GTPase-activating protein 1 (Homo sapiens, UniProt Q9H0H5).
T6 sequence (Q9H0H5 whole entry): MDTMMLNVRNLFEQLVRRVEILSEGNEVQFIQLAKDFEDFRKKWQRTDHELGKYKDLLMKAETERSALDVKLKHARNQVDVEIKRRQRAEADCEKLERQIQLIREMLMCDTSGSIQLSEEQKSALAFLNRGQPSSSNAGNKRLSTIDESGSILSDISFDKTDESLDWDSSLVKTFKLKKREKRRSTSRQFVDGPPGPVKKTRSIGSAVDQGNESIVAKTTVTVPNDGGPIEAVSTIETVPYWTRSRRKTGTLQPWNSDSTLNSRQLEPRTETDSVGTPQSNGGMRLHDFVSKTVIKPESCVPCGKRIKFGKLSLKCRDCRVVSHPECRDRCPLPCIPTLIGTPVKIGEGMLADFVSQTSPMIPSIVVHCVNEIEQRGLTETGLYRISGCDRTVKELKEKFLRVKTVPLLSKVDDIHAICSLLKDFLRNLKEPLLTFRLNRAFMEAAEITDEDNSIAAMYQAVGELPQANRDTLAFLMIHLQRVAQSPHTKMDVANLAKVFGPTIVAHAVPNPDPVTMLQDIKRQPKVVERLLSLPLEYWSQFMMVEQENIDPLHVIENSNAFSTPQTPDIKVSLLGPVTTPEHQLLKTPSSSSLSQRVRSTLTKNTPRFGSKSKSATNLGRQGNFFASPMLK
Briefly: MgcRacGAP GTPase-activating activity inhibitors, confirmation, biochemical, ADP Hunter fluorescence, primary and confirmatory (AID 624330). Format: functional.

Active and inactive are the calls of the source. A value given as a limit tells only on which side of the number the result lay.

Large T antigen, sequence (P03070 whole entry): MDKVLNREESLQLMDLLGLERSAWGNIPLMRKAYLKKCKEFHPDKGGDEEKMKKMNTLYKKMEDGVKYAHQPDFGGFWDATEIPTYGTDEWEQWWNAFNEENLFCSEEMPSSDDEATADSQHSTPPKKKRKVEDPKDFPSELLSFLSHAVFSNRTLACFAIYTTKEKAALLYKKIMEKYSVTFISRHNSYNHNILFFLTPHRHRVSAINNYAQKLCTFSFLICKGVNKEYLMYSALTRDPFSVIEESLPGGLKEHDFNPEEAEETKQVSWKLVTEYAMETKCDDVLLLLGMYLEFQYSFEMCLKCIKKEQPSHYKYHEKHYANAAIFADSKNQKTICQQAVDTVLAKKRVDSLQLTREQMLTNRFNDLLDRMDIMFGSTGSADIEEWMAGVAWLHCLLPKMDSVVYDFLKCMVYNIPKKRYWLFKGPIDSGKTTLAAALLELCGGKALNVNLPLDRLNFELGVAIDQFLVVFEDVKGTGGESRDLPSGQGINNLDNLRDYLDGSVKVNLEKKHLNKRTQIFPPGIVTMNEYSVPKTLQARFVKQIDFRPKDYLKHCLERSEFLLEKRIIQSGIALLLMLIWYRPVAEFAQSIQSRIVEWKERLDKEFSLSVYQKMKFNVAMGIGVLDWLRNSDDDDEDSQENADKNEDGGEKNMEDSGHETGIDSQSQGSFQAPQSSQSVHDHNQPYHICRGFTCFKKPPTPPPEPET

Consider `Cc1ccc(N/N=C(\C#N)C(=N)S)c(C)c1`, for which the EC50 is 32.6 µM (active) in [1], > 150 µM (not active) on Streptokinase A and 20.8 µM (active) in the test with Streptococcus. In addition, the AC50 in test [2] was 1.84 µM (active). As to `COc1cc2nc(O)c(C(=O)NCCCN3CCOCC3)c(O)c2cc1OC`, in test [3], the AC50 is 15 µM (active). In the case of `O=C(c1ccc2c(c1)OCO2)N1CCN(c2ccccc2)CC1`, in test [4], the AC50 was 13.9 µM (active). In the case of `CC(C)(C)C(O)C(Oc1ccc(Cl)cc1)n1cncn1` (stereo not given) [TRIADIMENOL], the EC50 is 1.51 µM (active) in test [5] and > 60 µM (not active) in test [6]. Further, the AC50 in test [2] is 0.29 µM (active). For the compound `CC(C)c1ccc2c(c1)C(=O)NC(C)(C)C2`, in [4], the AC50 is 3.3 µM (active). For the compound `O=C1c2cccc3cc4ccccc4c(c23)C(=O)N1CCNCCNCCNCCN1C(=O)c2cccc3cc4ccccc4c(c23)C1=O`, the GI50 was < 0.0187 µM (active) in the test on P388/ADR and < 0.0146 µM (active) with P388.

Turning to `CN(C)CCN1CCN(c2cc(-c3cccc(Cl)c3)nc3ccnn23)CC1`, the AC50 in test [3] is 6.97 µM (active). For the compound `COc1ccc(C(=O)COC(=O)CN2CC(=O)Oc3ccccc32)cc1Br`, the IC50 on Nonstructural protein 1 was 4.25 µM (active). With `Cc1nn(-c2ccccc2)c2sc(-c3nnc(S)o3)cc12`, the EC50 in test [1] is 4.28 µM (active); on Streptokinase A, > 150 µM (not active); with Streptococcus, 99 µM (active). Also, the AC50 in test [4] was 2.63 µM (active). Turning to `COc1ccc(-n2nc(C)cc2Nc2ccccc2C(=O)O)cc1`, in test [4], the AC50 is 3.72 µM (active). Regarding `CC(C)COC(=O)c1ccc2c(c1O)C(=O)c1ccccc1C2=O`, the IC50 on Nonstructural protein 1 is 34.6 µM (active). For the same compound, the AC50 in the test on INS1 is 10.9 µM (active). In the case of `Cc1cc(C(=O)Nc2nnc(C3CCCCC3)s2)no1`, in test [4], the AC50 was 5.82 µM (active). `COc1ccc(C2=CC3=C(Br)C(=O)C(C)(OC(=O)c4ccco4)C(=O)C3=CO2)cc1` (stereo not given): the EC50 was > 300 µM (not active) in [7] and 35.9 µM (active) in [8]. Further, the AC50 in test [2] is 4.13 µM (active). For the compound `COc1cccc(C(=O)Nc2ccc3c(cc2=O)[C@@H](NC(C)=O)CCc2cc(OC)c(OC)c(OC)c2-3)c1`, the AC50 in test [9] was 8.43 µM (active). Still for that read-out and setting: then `O=C(Cc1ccccc1)NCC(=O)N/N=C/c1ccc([N+](=O)[O-])s1`, with 16.1 µM (active).

On to `COc1cc(/C=N/NS(=O)(=O)c2ccc(C)c([N+](=O)[O-])c2)ccc1O`, for which the IC50 at Large T antigen was 7.27 µM (active); in test [10] it was 40.9 µM (active). In test [4], the AC50 is 0.181 µM (active). Consider `CN(C)CCCNC(=O)c1ccc(-c2cc3nc(NCc4cccnc4)n(C)c(=O)c3s2)cc1`, for which the AC50 in test [3] was 13.3 µM (active). On to `COC(=O)C12OCC34C(CC5C(C)=CC(=O)C(O)C5(C)C3C(O)C1O)OC(=O)C(OC(=O)CC(C)C)C24` (stereo not given), for which the GI50 is 0.0216 µM (active) in the test on P388/ADR and 0.00154 µM (active) in the test with P388.

Consider `CCOc1ccc(C(C)=O)cc1Cn1ccsc1=N`, for which, in test [3], the AC50 is 4.87 µM (active). Consider `COc1ccc(C)cc1NC(=O)c1cc2c(CO)cnc(C)c2oc1=N`, for which, in test [4], the AC50 is 7.55 µM (active).

The EC50 is the concentration giving half of the maximal effect. One may read the AC50 as the concentration giving half of the maximal activity seen. What is called GI50 is the concentration that inhibits growth by half. A word on the IC50: it is the concentration needed to halve the response being measured.
